Where “and” joins values, the source holds several entries; their conditions need not be identical. Identical values can stand only once. Like-named read-outs stand apart in the source and are kept apart here.
Legend:
Assay in all cases: biochemical
[1] = biological target: TcTryS (Trypanosoma cruzi trypanothione synthetase) (Trypanosoma cruzi, UniProt Q9GT49); type: biochemical; details: for remaining activity at 30 µM: read-out: TcTryS Activity ± 2σn-1 (%)
[2] = biological target: LiTryS (Leishmania infantum trypanothione synthetase) (Leishmania infantum, UniProt A4I2Z3); type: biochemical; details: for activity at 30 µM: read-out: LiTryS Activity ± 2σn-1 (%)
LiTryS (Leishmania infantum trypanothione synthetase), sequence (A4I2Z3 1-652): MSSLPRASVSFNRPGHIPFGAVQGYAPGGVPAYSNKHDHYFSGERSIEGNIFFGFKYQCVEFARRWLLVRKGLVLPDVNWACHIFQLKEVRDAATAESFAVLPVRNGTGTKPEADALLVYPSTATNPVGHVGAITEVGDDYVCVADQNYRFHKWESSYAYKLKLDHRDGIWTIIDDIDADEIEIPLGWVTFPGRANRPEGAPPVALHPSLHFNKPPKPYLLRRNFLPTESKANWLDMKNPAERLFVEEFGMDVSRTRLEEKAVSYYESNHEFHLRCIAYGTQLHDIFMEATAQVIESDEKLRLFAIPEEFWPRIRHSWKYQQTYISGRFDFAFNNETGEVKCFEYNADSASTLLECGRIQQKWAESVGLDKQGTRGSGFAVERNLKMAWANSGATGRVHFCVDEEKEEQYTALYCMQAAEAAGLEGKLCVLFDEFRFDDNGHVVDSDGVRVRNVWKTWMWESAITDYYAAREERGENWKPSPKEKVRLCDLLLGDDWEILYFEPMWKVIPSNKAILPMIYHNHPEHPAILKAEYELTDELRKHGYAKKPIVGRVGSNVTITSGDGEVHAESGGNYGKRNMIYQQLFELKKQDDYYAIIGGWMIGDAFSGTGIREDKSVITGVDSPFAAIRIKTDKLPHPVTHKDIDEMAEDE

[3] = biological target: TbTryS (Trypanosoma brucei trypanothione synthetase) (Trypanosoma brucei brucei, UniProt Q8IEX1); details: for activity at 30 µM: read-out: TbTryS Activity ± 2σn-1 (%)
TbTryS (Trypanosoma brucei trypanothione synthetase), sequence (Q8IEX1 1-627): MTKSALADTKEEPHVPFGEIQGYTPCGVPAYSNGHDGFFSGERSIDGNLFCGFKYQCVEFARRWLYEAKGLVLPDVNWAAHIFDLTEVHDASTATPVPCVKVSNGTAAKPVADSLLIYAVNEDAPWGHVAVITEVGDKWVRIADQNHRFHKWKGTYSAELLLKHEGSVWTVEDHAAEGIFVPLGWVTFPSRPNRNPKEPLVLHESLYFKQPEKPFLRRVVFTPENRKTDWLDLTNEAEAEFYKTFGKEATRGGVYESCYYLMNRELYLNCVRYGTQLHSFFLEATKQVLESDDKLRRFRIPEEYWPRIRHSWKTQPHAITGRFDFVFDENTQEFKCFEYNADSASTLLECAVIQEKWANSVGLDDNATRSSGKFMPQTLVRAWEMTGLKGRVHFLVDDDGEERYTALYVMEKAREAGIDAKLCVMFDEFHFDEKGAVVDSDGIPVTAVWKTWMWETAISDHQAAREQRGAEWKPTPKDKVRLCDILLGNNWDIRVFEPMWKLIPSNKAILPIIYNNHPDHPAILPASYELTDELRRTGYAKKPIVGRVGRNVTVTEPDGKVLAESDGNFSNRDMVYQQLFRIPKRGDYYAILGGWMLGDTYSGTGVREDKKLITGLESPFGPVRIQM

TcTryS (Trypanosoma cruzi trypanothione synthetase), sequence (Q9GT49 whole entry): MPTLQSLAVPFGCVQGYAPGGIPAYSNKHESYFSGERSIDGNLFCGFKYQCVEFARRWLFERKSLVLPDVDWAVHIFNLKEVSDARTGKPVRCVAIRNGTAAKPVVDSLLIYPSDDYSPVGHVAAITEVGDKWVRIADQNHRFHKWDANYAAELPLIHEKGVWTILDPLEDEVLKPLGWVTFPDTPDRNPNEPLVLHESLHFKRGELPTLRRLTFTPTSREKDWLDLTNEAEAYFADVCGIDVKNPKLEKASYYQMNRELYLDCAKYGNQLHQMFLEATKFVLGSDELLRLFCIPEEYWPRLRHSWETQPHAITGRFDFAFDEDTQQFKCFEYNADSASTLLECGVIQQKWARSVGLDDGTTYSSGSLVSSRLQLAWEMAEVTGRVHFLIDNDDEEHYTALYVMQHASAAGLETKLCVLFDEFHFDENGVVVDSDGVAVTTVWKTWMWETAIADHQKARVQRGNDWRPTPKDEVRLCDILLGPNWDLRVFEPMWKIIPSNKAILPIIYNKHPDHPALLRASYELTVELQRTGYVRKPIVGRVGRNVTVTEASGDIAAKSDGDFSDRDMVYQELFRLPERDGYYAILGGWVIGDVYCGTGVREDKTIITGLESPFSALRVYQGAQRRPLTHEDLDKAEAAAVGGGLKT

COc1cc(CNCCCCNCc2ccc(O)c(OC)c2)ccc1O [APC1-93]
TcTryS Activity ± 2σn-1 (%) [1]: 94.4 ± 2.4; 4% | LiTryS Activity ± 2σn-1 (%) [2]: 101.3 ± 8.7. 4% | TbTryS Activity ± 2σn-1 (%) [3]: 94.0 ± 9.1; 5%

COc1ccc2nc(N3C(=O)C(O)=C(C(=O)c4ccc5c(c4)OCCO5)C3c3ccc(OC)c(OC)c3)sc2c1 (stereo not shown) [ADMRC155]
TcTryS Activity ± 2σn-1 (%) [1]: 104.0 ± 6.6; 4% | LiTryS Activity ± 2σn-1 (%) [2]: 89.3 ± 7.4; 3% | TbTryS Activity ± 2σn-1 (%) [3]: 97.5 ± 3.4; 3%

COc1ccc(C2C(C(=O)c3ccc4c(c3)OCCO4)=C(O)C(=O)N2c2nc3ccc(C)cc3s2)cc1 (stereo not shown) [AD81]
TcTryS Activity ± 2σn-1 (%) [1]: 109.7 ± 8.9; 4% | remaining activity at 30 µM [1]: 110 ± 8.9% | activity at 30 µM [2]: 83.9 ± 4.2% | TbTryS Activity ± 2σn-1 (%) ([3]; 30 µM): 128.2 ± 3.6 ; 8 (0.93) % | activity at 30 µM [3]: 128%

Fc1ccc(CNCCCCCCCCNCc2ccc(F)cc2)cc1 [EAP1-39]
TcTryS Activity ± 2σn-1 (%) [1]: 96.0 ± 4.0; 4% | LiTryS Activity ± 2σn-1 (%) [2]: 69.6 ± 5.5; 4% | TbTryS Activity ± 2σn-1 (%) [3]: 85.7 ± 2.0; 3%

c1ccc(CNCCCCCCCCCCCCNCc2ccccc2)cc1 [EAP1-9]
TcTryS Activity ± 2σn-1 (%) [1]: 87.3 ± 5.4; 4% | LiTryS Activity ± 2σn-1 (%) [2]: 89.6 ± 9.4; 3% | TbTryS Activity ± 2σn-1 (%) [3]: 74.9 ± 4.1; 4%

CC(C)c1ccc(CNCCCCCCCCNCc2ccc(C(C)C)cc2)cc1 [EAP1-37]
TcTryS Activity ± 2σn-1 (%) [1]: 65.6 ± 5.3; 4 (1.46) % | LiTryS Activity ± 2σn-1 (%) [2]: 77.4 ± 7.9; 9 (1.284) % | TbTryS Activity ± 2σn-1 (%) [3]: 56.8 ± 5.6; 3 (1.43) %

O=C(C1=C(O)C(=O)N(c2nc3ccc(Cl)cc3s2)C1c1ccccc1)c1ccc2c(c1)OCCO2 (stereo not shown) [ADMRC159]
TcTryS Activity ± 2σn-1 (%) [1]: 97.2 ± 7.8; 2% | % LiTryS inhibition ± 2σn-1 [2]: ~35% | LiTryS Activity ± 2σn-1 (%) [2]: 64.1 ± 2.7; 4% | TbTryS Activity ± 2σn-1 (%) [3]: 91.7 ± 6.5; 3%

COc1ccc2nc(N3C(=O)C(O)=C(C(=O)c4ccc5c(c4)OCCO5)C3c3ccc(O)c(OC)c3)sc2c1 (stereo not shown) [ADMRC156]
TcTryS Activity ± 2σn-1 (%) [1]: 102.2 ± 8.8; 4% | LiTryS Activity ± 2σn-1 (%) [2]: 79.4 ± 4.6; 4% | TbTryS Activity ± 2σn-1 (%) [3]: 108.1 ± 6.5; 3%

c1ccc(COc2ccc(CNCCCCNCc3ccc(OCc4ccccc4)cc3)cc2)cc1 [APC1-87]
inhibition at 30 µM ([1]; read-out: % TcTryS inhibition ± 2σn-1): 26.6 ± 4.1% | remaining activity at 30 µM [1]: 73.4% | IC50 ([2]; read-out: LiTryS IC50 (estimated)): ~30 µM | inhibition at 30 µM ([3]; read-out: % TbTryS inhibition ± 2σn-1): 37.9 ± 4% | activity at 30 µM [3]: 62.1%

Cc1ccc2c(c1)no[n+]2[O-] [Compound J10]
TcTryS Activity ± 2σn-1 (%) [1]: 92.6 ± 10.8; 3% | LiTryS Activity ± 2σn-1 (%) [2]: 84.7 ± 10.5; 4% | TbTryS Activity ± 2σn-1 (%) [3]: 92.7 ± 3.4; 3%

COc1ccc(CNCCCNCc2ccc(OC)cc2)cc1 [APC1-67]
remaining activity at 30 µM [1]: 92.4% | activity at 30 µM [2]: 102% | activity at 30 µM [3]: 71.9%

Fc1ccc(CNCCCCCCCCCCNCc2ccc(F)cc2)cc1 [EAP1-51]
TcTryS Activity ± 2σn-1 (%) [1]: 87.5 ± 4.6; 4% | LiTryS Activity ± 2σn-1 (%) [2]: 80.6 ± 2.7; 4% | TbTryS Activity ± 2σn-1 (%) [3]: 81.0 ± 7.5; 3%

COc1cc(CNCCCCCCCCCCNCc2ccc(O)c(OC)c2)ccc1O [APC1-123]
TcTryS Activity ± 2σn-1 (%) [1]: 88.8 ± 6.5; 4% | LiTryS Activity ± 2σn-1 (%) [2]: 94.3 ± 8.2; 3% | TbTryS Activity ± 2σn-1 (%) [3]: 86.0 ± 5.5; 3%

CCCCn1c(=O)[nH]c(=O)c2c1nc(CSc1cccc(C(F)(F)F)c1)n2C [Compound C3, reference compound]
TcTryS Activity ± 2σn-1 (%) [1]: 91.1 ± 4.6; 4% | LiTryS Activity ± 2σn-1 (%) [2]: 84.5 ± 3.3; 3% | TbTryS Activity ± 2σn-1 (%) [3]: 92.7 ± 3.6; 3%

O=C(C1=C(O)C(=O)N(c2nc3ccc(Cl)cc3s2)C1c1ccc(O)cc1)c1ccc2c(c1)OCCO2 (stereo not shown) [AD83]
TcTryS Activity ± 2σn-1 (%) [1]: 93.6 ± 4.7; 3 (0.93) % | LiTryS Activity ± 2σn-1 (%) [2]: 83.9 ± 3.8; 4% | TbTryS Activity ± 2σn-1 (%) [3]: 106.9 ± 4.7; 3%

[O-][n+]1onc2cc(Cl)c(Cl)cc21 [Compound J13]
TcTryS Activity ± 2σn-1 (%) [1]: 84.9 ± 4.4; 3% | LiTryS Activity ± 2σn-1 (%) [2]: 102.2 ± 7.8; 3% | TbTryS Activity ± 2σn-1 (%) [3]: 88.9 ± 2.7; 3%

COc1cc(CNCCCNCc2ccc(O)c(OC)c2)ccc1O [APC1-82]
TcTryS Activity ± 2σn-1 (%) [1]: 92.9 ± 5.6; 4% | LiTryS Activity ± 2σn-1 (%) [2]: 84.9 ± 0.9; 4% | TbTryS Activity ± 2σn-1 (%) [3]: 88.1 ± 4.4; 3%

Brc1ccc(CNCCCCCCCCCCNCc2ccc(Br)cc2)cc1 [EAP1-57]
TcTryS Activity ± 2σn-1 (%) [1]: 81.2 ± 4.2; 3% | LiTryS Activity ± 2σn-1 (%) [2]: 75.2 ± 4.5; 3% | TbTryS Activity ± 2σn-1 (%) [3]: 62.6 ± 3.6; 3 (1.26) %

O=C(C1=C(O)C(=O)N(c2nc3ccc(Cl)cc3s2)C1c1ccc(F)cc1)c1ccc2c(c1)OCCO2 (stereo not shown) [ADMRC150]
TcTryS Activity ± 2σn-1 (%) [1]: 81.2 ± 4.1; 4% | % LiTryS inhibition ± 2σn-1 [2]: ~35% | LiTryS Activity ± 2σn-1 (%) [2]: 63.0 ± 6.8; 7% | TbTryS Activity ± 2σn-1 (%) [3]: 101.4 ± 8.2; 12%

[O-][n+]1onc2ccccc21 [J09/J34]
TcTryS Activity ± 2σn-1 (%) [1]: 102.2 ± 3.3; 3% | LiTryS Activity ± 2σn-1 (%) [2]: 84.9 ± 5.5; 4% | TbTryS Activity ± 2σn-1 (%) [3]: 90.9 ± 5.9; 4%

COc1ccc(C2C(C(=O)c3ccc4c(c3)OCCO4)=C(O)C(=O)N2c2nc3ccc(OC)cc3s2)cc1 (stereo not shown) [ADPKN160]
TcTryS Activity ± 2σn-1 (%) [1]: 97.6 ± 3.7; 4% | remaining activity at 30 µM [1]: 97.6 ± 3.7% | activity at 30 µM [2]: 77.9 ± 3.6% | TbTryS Activity ± 2σn-1 (%) ([3]; 30 µM): 116.4 ± 4.2; 4 (0.87) % | activity at 30 µM [3]: 116%

c1ccc(COc2ccc(CNCCCCCCCCCCNCc3ccc(OCc4ccccc4)cc3)cc2)cc1 [APC1-117]
TcTryS Activity ± 2σn-1 (%) [1]: 90.8 ± 12.3; 2% | LiTryS Activity ± 2σn-1 (%) [2]: 69.8 ± 6.5; 3% | TbTryS Activity ± 2σn-1 (%) [3]: 71.4 ± 6.1; 4%

Cc1cc2no[n+]([O-])c2cc1C [Compound J11]
TcTryS Activity ± 2σn-1 (%) [1]: 86.4 ± 2.9; 4% | LiTryS Activity ± 2σn-1 (%) [2]: 103.6 ± 10.4; 3% | TbTryS Activity ± 2σn-1 (%) [3]: 88.8 ± 5.8; 4%

Clc1ccc(CNCCCCCCCCNCc2ccc(Cl)cc2)cc1 [EAP1-43]
TcTryS Activity ± 2σn-1 (%) [1]: 87.9 ± 4.7; 4% | LiTryS Activity ± 2σn-1 (%) [2]: 78.0 ± 5.9; 4% | TbTryS Activity ± 2σn-1 (%) [3]: 69.7 ± 3.0; 4%

COc1cc(CNCCCCCCNCc2ccc(O)c(OC)c2)ccc1O [APC1-121]
TcTryS Activity ± 2σn-1 (%) [1]: 92.9 ± 5.0; 4% | LiTryS Activity ± 2σn-1 (%) [2]: 95.0 ± 7.8; 4% | TbTryS Activity ± 2σn-1 (%) [3]: 91.1 ± 4.8; 3%

Cn1c(=O)c2c(nc(N/N=C\c3ccc(O)cc3O)n2CC(O)COc2ccccc2)n(C)c1=O (stereo not shown) [TC227, (Z)-8-(2-(2,4-dihydroxybenzylidene)hydrazinyl)-7-(2-hydroxy-3-phenoxypropyl)-1,3-dimethyl-1H-purine-2,6(3H,7H)-dione]
% TryS activity (TcTryS) [1]: 1.1 ± 3.1; 4% and 0.2 ± 3.1; 4% and 1.1 ± 2.1; 4% | TcTryS Activity ± 2σn-1 (%) [1]: 161.6 ± 5.3; 3 (0.98) % | remaining activity at 30 µM [1]: 162% | activity at 30 µM [2]: 88.5 ± 7.1% | activity at 30 µM [3]: 102 ± 2.3%

COc1ccc2c(c1)no[n+]2[O-] [Compound J14]
TcTryS Activity ± 2σn-1 (%) [1]: 77.2 ± 4.4; 4% | LiTryS Activity ± 2σn-1 (%) [2]: 96.1 ± 7.3; 4% | TbTryS Activity ± 2σn-1 (%) [3]: 93.1 ± 5.6; 4%

[O-][n+]1onc2cc(Cl)ccc21 [Compound J12]
TcTryS Activity ± 2σn-1 (%) [1]: 63.7 ± 0.5; 4% | LiTryS Activity ± 2σn-1 (%) [2]: 93.8 ± 3.9; 4% | TbTryS Activity ± 2σn-1 (%) [3]: 92.7 ± 2.7; 3%

COc1ccc(CNCCCCCCNCc2ccc(OC)cc2)cc1 [APC1-98]
TcTryS Activity ± 2σn-1 (%) [1]: 94.2 ± 5.5; 2% | LiTryS Activity ± 2σn-1 (%) [2]: 79.6 ± 5.6; 4% | TbTryS Activity ± 2σn-1 (%) [3]: 72.8 ± 3.7; 4%

COc1cc(CNCCCCCCCCCCNCc2ccc(OCc3ccccc3)c(OC)c2)ccc1OCc1ccccc1 [APC1-119]
TcTryS Activity ± 2σn-1 (%) [1]: 101.5 ± 1.9; 4 (1.18) % | LiTryS Activity ± 2σn-1 (%) [2]: 78.1 ± 9.8; 6 (1.219) % | TbTryS Activity ± 2σn-1 (%) [3]: 55.5 ± 1.8. 3 (1.11) %

[O-][n+]1onc2cc(C(F)(F)F)ccc21 [Compound J25]
TcTryS Activity ± 2σn-1 (%) [1]: 81.8 ± 2.2; 3% | LiTryS Activity ± 2σn-1 (%) [2]: 110.7 ± 2.4; 3% | TbTryS Activity ± 2σn-1 (%) [3]: 98.4 ± 4.2; 3%

Fc1ccc(CNCCCCCCCCCCCCNCc2ccc(F)cc2)cc1 [EAP1-69]
% TcTryS inhibition ± 2σn-1 [1]: ~ 50% | TcTryS Activity ± 2σn-1 (%) [1]: 56.3 ± 3.6; 3% | LiTryS Activity ± 2σn-1 (%) [2]: 63.2 ± 5.0; 4% | TbTryS Activity ± 2σn-1 (%) [3]: 81.4 ± 5.6; 4 (1.39) %

[O-][n+]1onc2c(Cl)cc(Cl)cc21 [Compound J26]
TcTryS Activity ± 2σn-1 (%) [1]: 95.8 ± 1.1; 3% | LiTryS Activity ± 2σn-1 (%) [2]: 88.0 ± 1.0; 3% | TbTryS Activity ± 2σn-1 (%) [3]: 104.9 ± 5.7; 3%

COc1cc(C2C(C(=O)c3ccc4c(c3)OCCO4)=C(O)C(=O)N2c2nc3ccc(Cl)cc3s2)ccc1O (stereo not shown) [ADMRC158]
TcTryS Activity ± 2σn-1 (%) [1]: 97.4 ± 6.1; 4% | remaining activity at 30 µM [1]: 97.4 ± 6.1% | activity at 30 µM [2]: 85.3 ± 8.7% | TbTryS Activity ± 2σn-1 (%) ([3]; 30 µM): 119.1 ± 4.6; 5 (0.88) % | activity at 30 µM [3]: 119%

— publication PMC4829233, “Identification of Novel Chemical Scaffolds Inhibiting Trypanothione Synthetase from Pathogenic Trypanosomatids” (PLoS Neglected Tropical Diseases, 2016)
